Data from patent publication US5882881A, “Inhibition of cyst formation by cytoskeletal specific drugs” (priority 1998, dated 1999).
Several values for one entry are separate records, joined by “and”; a condition that tells them apart may be missing. Identical values can stand only once. Entries after “also recorded” stand apart in the source; their conditions may differ.

What was measured:
[1] = system: Murine CPK Cells; assay: In vitro cyst formation and cyst size in suspension culture of murine CPK cells; assay type: cell-based, mouse; details: for Cyst Size: mean ± SD of twenty cysts, concentrations as in Table II, control 71 ± 22; for cyst formation (in words): murine CPK cells, 24 h suspension culture, ouabain 0.5 mM, also 1 mM, b155 taxol 25 μM, colchicine 10 μM, vinblastine 1 μM, cytochalasins 10 μM, model species not given
Procedure: At 10, 21 and 28 days after birth, mice having congenital polycystic kidney disease (CPK) and their phenotypically normal littermates were sacrificed by cervical dislocation. Kidneys were harvested aseptically and washed with DMEM/F12 (Sigma Chemical Co., St. Louis, Mo.) in a 1:1 mix. Each decapsulated kidney was chopped into cubes (1 mm) and incubated in 5 ml of collagenase solution composed of 1 mg/ml collagenase type IV (Worthington Biochemical Corporation, Freehold, N.J.), 1 mg/ml egg white trypsin inhibitor (Worthington) in 1:1 DMEM/F12.
The top 12 mls, which contained both single cells and aggregates of up to 10 cells, as assessed by inverted phase-ontrast microscopy, were placed in 2 ml aliquots in the wells of plastic culture plates (Corning, N.Y.) precoated with 1% agarose in DMEM:F12 (2 ml in each well of a 6-well plate; 1 ml in each well of a 24-well plate). Cell samples were digested with further incubation for 10 minutes in 0.05% trypsin and 0.53 mM EDTA (Gibco, BRL Gaithesburg, Md.) at 37° C. All cultures were plated at a final density of 1-3×10^4 cell, per well. For growth studies of monolayer cells, identical preparations were grown on the plastic surface of the culture plates. Both the monolayers and the cell suspensions were incubated at 37° C. in a moisture saturated incubator in 5% CO2 and air.
(§1) I used the in vitro cyst formation system of the present invention to analyze compounds that affect the process of cyst formation. To determine the therapeutic effectiveness of an agent, cyst-forming cells are suspended in a medium to which the agent has been added. These cells are then cultured on a solid phase without formation of a layer of cells on the surface, such as in the assay system described in Example 1. The extent to which the cells actually form cysts can be detected and compared to the extent of cyst formation expected if no agent were added. If the amount of cyst formation is lower than expected, then the agent is a good candidate for therapeutic intervention of cystic diseases.
(§2) The effects of various metabolic inhibitors on cyst formation were studied in cultures derived from day 21 postnatal CPK mice. […] Taxol (25 μM), a microtubule specific inhibitor, was from Calbiochem (La Jolla, Calif.). All other chemicals were obtained from Sigma Chemical Co. Cytosine arabinoside was added at the final concentration of 20 μg/ml to inhibit DNA synthesis; α-amanitin at 100 ng/ml to inhibit RNA synthesis; cycloheximide at 40 μg/ml to inhibit protein synthesis; amiloride at 1 mM to inhibit the renal epithelial Na^+ -H^+ exchange; ouabain at 0.5 mM to inhibit Na^+ -K^+ -ATPase; brefeldin-A at 10 μg/ml to inhibit transport of surface proteins; griseofulvin at 350 μM to inhibit microtubule function; colchicine at 10 μM to inhibit microtubule polymerization; and cytochalasin-B and cytochalasin-D at 10 μM to depolymerize actin filaments.
(§3) In the presence of these metabolic inhibitors in vitro, cyst formation was noted to be either present or absent; if present, the diameters of 20 cysts from a 0.2 ml aliquot were measured. In the same samples, ^3 H-dThd incorporation was also measured as described above. […] After each wash, cell clusters were collected by centrifuging at 200×g for 1 minute and the supernatant discarded. Washed cell clusters were resuspended in the original volume of growth medium without inhibitors, placed in agarose coated wells and incubated at 37° C. in a moisture saturated incubator in 5% CO2 and air.
(§4) In this table, the mean cyst size is reported as ±SD with a measurement of twenty cysts. The ^3 H-dThd incorporation is reported as ±SD using measurements of three wells. The * indicates […] versus control. […] The entries listed as "NA" in the table indicate data that is not available.

[2] = system: homozygous cpk mice; assay: Survival of cpk mice on weekly griseofulvin (Example 9); assay type: in vivo, mouse
Procedure: Although the mechanism of its inhibitory activity is not presently understood, this antifungal agent is known to have a colchicine-like effect on mitosis.
Nine homozygous cpk mice, raised and identified as in Example 6 were treated with 25 μl of 24 mg/ml griseofulvin in DMSO through intraperitoneal injection beginning 10-12 days after birth. After the first treatment, the mice were administered with the same treatment once every week thereafter.

[3] = system: Murine CPK Cells; assay: In vitro cyst formation and cyst size in suspension culture of murine CPK cells; assay type: cell-based, mouse; details: day 21, 24 h, final concentration per Table II (cytosine arabinoside 20 μg/ml, α-amanitin 100 ng/ml, cycloheximide 49 μg/ml, ouabain 1 mM, amiloride 1 mM, brefeldin-A 10 μg/ml, griseofulvin 350 μM, colchicine 10 μM, vinblastine 1 μM, nocodazole 30 μM, taxol 25 μM, cytochalasins 10 μM)
[4] = system: homozygous cpk mice; assay: Survival of cpk mice on weekly intraperitoneal treatment (Example 8, FIG. 2); assay type: in vivo, mouse
Source text: Untreated and methotrexate (MTX) treated polycystic cpk mice all died before 30 days of age. Most polycystic cpk mice treated with weekly taxol survive more than 60 days. The dotted line starting at day 120 indicates the number and age of apparently healthy taxol treated polycystic mice that were sacrificed for histology studies. Pairs of mice were sacrificed at 120 days, 182 days and 210 days of age.
In order to determine whether taxol prevents cyst formation by inhibiting cell division, another drug known to have anti-mitotic activity, methotrexate, was tested for its ability to treat homozygous cpk mice. Six cpk mice were injected intraperitoneally with 15 μl of methotrexate solution (1.1 mg/ml in water) 10-12 days after birth and once every week thereafter. The methotrexate-injected mice survived until between 18 and 27 days after birth, with only one mouse living longer than 28 days. […] Therefore, the anti-mitotic activity of taxol cannot explain its ability to treat CPK mice having a polycystic-type kidney disease. Rather, the results from in vitro tests indicate that agents which interfere with the function of the cytoskeleton, or which inhibit the delivery of membrane proteins are useful in treating cystic diseases such as Polycystic Kidney Disease.
Eleven homozygous cpk mice, raised and identified as in Example 6 were treated with 15 μl of 10 mg/ml taxol in DMSO through intraperitoneal injection beginning 11-14 days after birth. Following the first treatment, the mice were administered with the same treatment once every week thereafter. As controls, 6 cpk mice were treated with 15 μl intraperitoneal injections of DMSO beginning 10-12 days after birth and then once every week thereafter.

[5] = system: neonatal CPK kidneys; details: triiodothyronine pharmacological doses; ouabain 0.2 mM; cited from earlier work
[6] = system: human ADPKD cells; assay: In vitro cyst formation in human ADPKD cells; assay type: cell-based
Source text: I have substituted human ADPKD cells for the murine CPK cells of Example 1 and produced similar results. Other cyst-forming cells are believed to also form suitable results with only minor deviations from the conditions set forth in Example 1.
Cell suspensions were separated from debris by sedimentation at unit gravity and decantation. After washing once with DMEM/F12 medium, cells were suspended in DMEM/F12 supplemented with 1.2 gm/l sodium bicarbonate, 1× insulin, transferrin and selenium (Sigma # 11184), 1% lipids supplement (Sigma # L4646) and 1× antibiotic/antimycotic (Sigma # A7292) at a density of 5×10^4 cells per ml. Two mls of the cell suspension were aliquoted into each well of a six-well plastic cell culture plates that had been precoated with 2 mls of 1% low melting point agarose in DMEM/F12 and incubated at 37° C. in a humidified atmosphere of 5% CO2 in air.
as §1

[7] = system: Murine CPK Cells; assay: Cell viability, trypan blue exclusion, CPK suspension culture; details: 1.0 mM ouabain
Procedure: as §2, with “[…];” for “ouabain at 0.5 mM to inhibit Na^+ -K^+ -ATPase;”

[8] = system: Na^+ K^+ -ATPase; details: triiodothyronine; ouabain 0.2 mM; cited from earlier work
[9] = system: Murine CPK Cells; assay: 3H-thymidine incorporation (DNA synthesis) in CPK cell suspension culture; assay type: cell-based, mouse; details: ± SD, three wells; concentrations as in Table II; control 100 ± 11; 1440 min
Procedure: Growth studies were performed on kidney cells derived from day 10, 21 and 28 postnatal CPK mice and their normal littermates. Immediately after cells were placed in suspension or monolayer culture, 3 μCi of ^3 H-thymidine (^3 H-dThd, specific activity 45 Ci/mmol, Amersham, Ill.) was placed in each well of the culture plate. DNA synthesis was assessed by incorporation of ^3 H-dThd over the 24 hours of culture, and trichloroacetic acid-insoluble. radioactivity was expressed as cpm/μg protein. Protein was assayed with the BCA reagent as described by the manufacturer (Pierce, Rockford, Ill.). At 24 hours of culture, an aliquot (0.2 ml) of the suspension was removed and the number of cysts counted using an inverted microscope. The number of cysts was expressed as a ratio factored for the total number of cells in the suspension at 24 hours of culture. Cyst diameter was measured at 100× using an eyepiece micrometer.
as §2, §3, §4

[10] = system: normal and polycystic human kidney epithelial cells; details: embedded in type 1 collagen; cited from earlier work

Molecule | Cyst Size [1] [μm] | cyst formation (in words) [1] | Cyst Formation (+/-) [3] | proximal tubular cysts maintained / effect abolished [5] | renal Na^+ K^+ -ATPase activity (in words) [8] | induction of cysts [10] | further results
COC1=CC(=O)C[C@@H](C)[C@]12Oc1c(Cl)c(OC)cc(OC)c1C2=O [Griseofulvin] | 0 | inhibits the formation of cysts | - |  |  |  | minimum average lifespan ([2]; 25 μl of 24 mg/ml griseofulvin in DMSO i.p. weekly from 10-12 days, untreated controls 33.5±6.3 days, preliminary): at least 49±15.8 days; age of mice still alive ([2]; remaining three of nine mice, weekly griseofulvin i.p.): 78 days of age and 54 days of age and 63 days of age; age at death of individual mice ([2]; six of nine mice, weekly griseofulvin i.p.): 31 days of age and 34 days of age and 35 days of age and 41 days of age and 45 days of age and 60 days of age
CN(Cc1cnc2nc(N)nc(N)c2n1)c1ccc(C(=O)N[C@@H](CCC(=O)O)C(=O)O)cc1 [Methotrexate] |  |  |  |  |  |  | survival, age ([4]; weekly i.p. treatment, DMSO mice survived 24-28 days, FIG. 2: all methotrexate, most taxol mice, b191: remaining six taxol mice > 120, two died < 30): < 30 days; survival (in words) ([4]; weekly i.p., versus untreated or DMSO): did not appear to survive substantially longer than untreated controls
C[C@@H]1O[C@@H](O[C@H]2C[C@@H](O)[C@]3(CO)[C@H]4[C@H](O)C[C@]5(C)[C@@H](C6=CC(=O)OC6)CC[C@]5(O)[C@@H]4CC[C@]3(O)C2)[C@H](O)[C@H](O)[C@H]1O [Ouabain] | 0 | not to inhibit cyst formation in these cells; also recorded: cyst inhibiting activity was observed; also recorded: did not prevent the formation of CPK cysts | - | abolished | decrease |  | cyst formation (in words) ([6]; human ADPKD cells, cytosine arabinoside 20 μg/ml, α-amanitin 100 ng/ml, cycloheximide 40 μg/ml, amiloride 1 mM, ouabain 0.5 mM, taxol 25 μM, colchicine 10 μM, vinblastine 1 μM, cytochalasins 10 μM): potent inhibitor of cyst formation; also recorded: completely block cyst formation; also recorded: cyst formation can be blocked; time to lumen appearance after removing the inhibitor ([6]; human model): twenty-four; reversibility of inhibition of cyst formation ([6]; human model, inhibitor removed): reversible; cell death / reduction of cell viability (in words) [7]: extensive cell death; also recorded: large scale reduction of cell viability; ^3 H-dThd Incorporation [9]: 104 ± 9 % control
C=C[C@@]1(C)CC(=O)[C@]2(O)[C@@]3(C)[C@@H](O)CCC(C)(C)[C@@H]3[C@H](O)[C@H](OC(C)=O)[C@@]2(C)O1 [forskolin] |  |  |  |  |  | can be induced to produce cysts | 
N[C@@H](Cc1cc(I)c(Oc2ccc(O)c(I)c2)c(I)c1)C(=O)O [triiodothyronine] |  |  |  | can be maintained | increase |  | 
epidermal growth factor: stimulates cyst formation of kidney epithelial cells in collagen |  |  |  |  |  | can be induced to produce cysts | 
